Each cell line was assayed with O=C(/C=C/c1cccnc1)NCCCCC1CCN(C(=O)c2ccccc2)CC1 [Daporinad] (assay: relative viability (nuclei count vs DMSO), 5 days (fraction); higher = more cells survive). Settings: 0.0005 µM.
Outline: (§1)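 Viability was read as treated-well nuclei divided by vehicle-well nuclei, using the median across plates. Lung cancer cell lines in 1536-well plates were kept overnight at 37 °C, pinned with five √10-spaced library-drug doses, and after 5 days were Hoechst-stained, imaged at 4× and counted in MetaXpress. Plates passed only with control CV below 25% and at least one doubling.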

Row | Cell Line | relative viability
1 | HCC-827 | 1.02
2 | LXF-289 | 0.959
3 | NCI-H23 | 1.03
4 | NCI-H1299 | 1.01
5 | NCI-H650 | 0.899
6 | CAL-12T | 0.904
7 | NCI-H1651 | 1.01
8 | EPLC-272H | 0.856
9 | NCI-H2228 | 0.925
10 | NCI-H1792 | 0.828
11 | NCI-H1355 | 0.968
12 | NCI-H3122 | 0.955
13 | NCI-H1437 | 0.891
14 | NCI-H1755 | 0.966
15 | NCI-H2023 | 0.982
16 | HCC-15 | 0.967
17 | PC-3 [JPC-3] | 1.02
18 | EKVX | 0.933
19 | LC-2-ad | 0.934
20 | NCI-H1563 | 1.07
21 | NCI-H1975 | 1.05
22 | SK-LU-1 | 1.06
23 | ABC-1 | 0.802
24 | NCI-H1944 | 0.921
25 | NCI-H661 | 1.01
26 | RERF-LC-KJ | 0.923

Same assay, conditions: 0.001581 µM

Row | Cell Line | relative viability
27 | HCC-827 | 1.06
28 | LXF-289 | 1.1
29 | NCI-H23 | 1.06
30 | NCI-H1299 | 1.04
31 | NCI-H650 | 0.953
32 | CAL-12T | 1.03
33 | NCI-H1651 | 1.03
34 | EPLC-272H | 1.04
35 | NCI-H2228 | 0.846
36 | NCI-H1792 | 1.17
37 | NCI-H1355 | 1.13
38 | NCI-H3122 | 1
39 | NCI-H1437 | 1.01
40 | NCI-H1755 | 0.989
41 | NCI-H2023 | 1.15
42 | HCC-15 | 1.15
43 | PC-3 [JPC-3] | 1.1
44 | EKVX | 0.95
45 | LC-2-ad | 1.1
46 | NCI-H1563 | 0.995
47 | NCI-H1975 | 0.916
48 | SK-LU-1 | 1.11
49 | ABC-1 | 0.934
50 | NCI-H1944 | 1.05
51 | NCI-H661 | 0.982
52 | RERF-LC-KJ | 1.04

Same assay, conditions: 0.005 µM

Row | Cell Line | relative viability
53 | HCC-827 | 1.03
54 | LXF-289 | 1.09
55 | NCI-H23 | 0.973
56 | NCI-H1299 | 1.04
57 | NCI-H650 | 1.05
58 | CAL-12T | 0.735
59 | NCI-H1651 | 1.05
60 | EPLC-272H | 1.06
61 | NCI-H2228 | 1.24
62 | NCI-H1792 | 1.11
63 | NCI-H1355 | 1.14
64 | NCI-H3122 | 1.05
65 | NCI-H1437 | 1.01
66 | NCI-H1755 | 1.03
67 | NCI-H2023 | 1.09
68 | HCC-15 | 1.14
69 | PC-3 [JPC-3] | 1.14
70 | EKVX | 0.974
71 | LC-2-ad | 1.03
72 | NCI-H1563 | 0.983
73 | NCI-H1975 | 1.01
74 | SK-LU-1 | 1.19
75 | ABC-1 | 0.832
76 | NCI-H1944 | 1.07
77 | NCI-H661 | 0.72
78 | RERF-LC-KJ | 1.07

Same assay, conditions: 0.01581 µM

Row | Cell Line | relative viability
79 | HCC-827 | 1.1
80 | LXF-289 | 1.1
81 | NCI-H23 | 0.53
82 | NCI-H1299 | 1.04
83 | NCI-H650 | 1.01
84 | CAL-12T | 0.269
85 | NCI-H1651 | 0.874
86 | EPLC-272H | 1.04
87 | NCI-H2228 | 0.973
88 | NCI-H1792 | 1.15
89 | NCI-H1355 | 1.03
90 | NCI-H3122 | 0.984
91 | NCI-H1437 | 0.99
92 | NCI-H1755 | 1.02
93 | NCI-H2023 | 0.987
94 | HCC-15 | 1.05
95 | PC-3 [JPC-3] | 1.12
96 | EKVX | 1.14
97 | LC-2-ad | 0.957
98 | NCI-H1563 | 0.904
99 | NCI-H1975 | 0.968
100 | SK-LU-1 | 1.12
101 | ABC-1 | 0.659
102 | NCI-H1944 | 1.02
103 | NCI-H661 | 0.605
104 | RERF-LC-KJ | 1.02

What follows are cell lines tested with COc1cc(Nc2ncc(F)c(Nc3ccc4c(n3)NC(=O)C(C)(C)O4)n2)cc(OC)c1OC [R406] in the same assay as above. Settings: 0.08 µM.
Outline: as §1

Row | Cell Line | relative viability
105 | HCC-827 | 1.09
106 | LXF-289 | 0.976
107 | NCI-H23 | 0.948
108 | NCI-H1299 | 1
109 | NCI-H650 | 0.895
110 | CAL-12T | 0.993
111 | NCI-H1651 | 0.926
112 | EPLC-272H | 0.919
113 | NCI-H2228 | 1.1
114 | NCI-H1792 | 1
115 | NCI-H1355 | 0.977
116 | NCI-H3122 | 0.948
117 | NCI-H1437 | 0.994
118 | NCI-H1755 | 0.947
119 | NCI-H2023 | 0.902
120 | HCC-15 | 0.919
121 | PC-3 [JPC-3] | 1.04
122 | EKVX | 0.928
123 | LC-2-ad | 0.965
124 | NCI-H1563 | 0.904
125 | NCI-H1975 | 0.848
126 | SK-LU-1 | 0.955
127 | ABC-1 | 0.761
128 | NCI-H1944 | 0.932
129 | NCI-H661 | 0.888
130 | RERF-LC-KJ | 0.98

Same assay, conditions: 0.253 µM

Row | Cell Line | relative viability
131 | HCC-827 | 1.07
132 | LXF-289 | 1.06
133 | NCI-H23 | 1.21
134 | NCI-H1299 | 1.08
135 | NCI-H650 | 1.12
136 | CAL-12T | 1.22
137 | NCI-H1651 | 1.1
138 | EPLC-272H | 0.975
139 | NCI-H2228 | 1.3
140 | NCI-H1792 | 1.07
141 | NCI-H1355 | 1.13
142 | NCI-H3122 | 1
143 | NCI-H1437 | 1.08
144 | NCI-H1755 | 1.05
145 | NCI-H2023 | 1.05
146 | HCC-15 | 1.23
147 | PC-3 [JPC-3] | 1.17
148 | EKVX | 1.12
149 | LC-2-ad | 0.987
150 | NCI-H1563 | 0.971
151 | NCI-H1975 | 1.03
152 | SK-LU-1 | 1.16
153 | ABC-1 | 1.06
154 | NCI-H1944 | 1.08
155 | NCI-H661 | 0.947
156 | RERF-LC-KJ | 1.06

Same assay, conditions: 0.8 µM

Row | Cell Line | relative viability
157 | HCC-827 | 1.1
158 | LXF-289 | 1.04
159 | NCI-H23 | 1.1
160 | NCI-H1299 | 1.07
161 | NCI-H650 | 1
162 | CAL-12T | 1.12
163 | NCI-H1651 | 1.05
164 | EPLC-272H | 1.07
165 | NCI-H2228 | 1.15
166 | NCI-H1792 | 1.17
167 | NCI-H1355 | 1.11
168 | NCI-H3122 | 0.989
169 | NCI-H1437 | 1.06
170 | NCI-H1755 | 1.13
171 | NCI-H2023 | 1.12
172 | HCC-15 | 1.17
173 | PC-3 [JPC-3] | 1.04
174 | EKVX | 1.1
175 | LC-2-ad | 1.04
176 | NCI-H1563 | 1.01
177 | NCI-H1975 | 1.02
178 | SK-LU-1 | 1.15
179 | ABC-1 | 0.895
180 | NCI-H1944 | 0.986
181 | NCI-H661 | 1.01
182 | RERF-LC-KJ | 1.06

Same assay, conditions: 2.53 µM

Row | Cell Line | relative viability
183 | HCC-827 | 0.903
184 | LXF-289 | 0.956
185 | NCI-H23 | 0.264
186 | NCI-H1299 | 1.06
187 | NCI-H650 | 0.791
188 | CAL-12T | 0.511
189 | NCI-H1651 | 0.899
190 | EPLC-272H | 0.438
191 | NCI-H2228 | 0.385
192 | NCI-H1792 | 0.251
193 | NCI-H1355 | 0.626
194 | NCI-H3122 | 0.945
195 | NCI-H1437 | 0.884
196 | NCI-H1755 | 0.838
197 | NCI-H2023 | 0.388
198 | HCC-15 | 0.81
199 | PC-3 [JPC-3] | 0.819
200 | EKVX | 0.855
201 | LC-2-ad | 0.539
202 | NCI-H1563 | 0.928
203 | NCI-H1975 | 0.479
204 | SK-LU-1 | 0.513
205 | ABC-1 | 0.619
206 | NCI-H1944 | 0.858
207 | NCI-H661 | 0.967
208 | RERF-LC-KJ | 0.781

Same assay, conditions: 8 µM

Row | Cell Line | relative viability
209 | HCC-827 | 0.672
210 | LXF-289 | 0.845
211 | NCI-H23 | 0.252
212 | NCI-H1299 | 0.744
213 | NCI-H650 | 0.653
214 | CAL-12T | 0.434
215 | NCI-H1651 | 0.667
216 | EPLC-272H | 0.379
217 | NCI-H2228 | 0.298
218 | NCI-H1792 | 0.386
219 | NCI-H1355 | 0.61
220 | NCI-H3122 | 0.977
221 | NCI-H1437 | 0.622
222 | NCI-H1755 | 0.796
223 | NCI-H2023 | 0.241
224 | HCC-15 | 0.629
225 | PC-3 [JPC-3] | 0.647
226 | EKVX | 0.722
227 | LC-2-ad | 0.312
228 | NCI-H1563 | 0.539
229 | NCI-H1975 | 0.385
230 | SK-LU-1 | 0.386
231 | ABC-1 | 0.535
232 | NCI-H1944 | 0.783
233 | NCI-H661 | 0.649

From the supplement of paper PMC10307832
